Where two headings read alike, the source gives them in different places. Where only a bound is given, the exact number is not on record here.

For data set [1], the system named is conscious spontaneously hypertensive rats (SHR). The experiment in a line: hypotensive action in conscious spontaneously hypertensive rats (SHR). It is filed as in vivo. To be noted: 10 mg/kg orally, starved overnight. The protocol:
Selected compounds of the present invention were tested for their hypotensive action in conscious spontaneously hypertensive rats (SHR).
A group of 17 to 20-week old male SHR were anesthetized with ether and a cannula was inserted into the left femoral artery. At least one day after the operation, the cannula was connected to a pressure transducer and the blood pressure was measured continuously under conscious and unrestrained condition, thereby obtaining the data shown in Table 4. Each of the test compounds as a clear suspension in 0.5% CMC-Na was administered orally at a dose of 10 mg/kg (body weight) to each animal which was starved overnight.

The nature of data set [2]: acute toxicity (LD50) in male mice. To be noted: mouse, in vivo. The source says: The acute toxicity (LD50) data of selected compounds of the present invention as administered to two groups of male mice were obtained and the results are shown in Table 5. One group of mice which received peroral administration had been starved overnight. Each of the test compounds was suspended in 0.5% CMC-Na for peroral administration, or dissolved in dimethyl sulfoxide and diluted with physiological saline solution for intravenous injection.

In data set [3] the test system is isolated guinea pig hearts (coronary artery). The experiment in a line: coronary vascular dilative effect in isolated guinea pig hearts (Langendorff). On the set-up: species or system Hartley guinea pigs. To be noted: isolated hearts perfused at 37° C., 0.1 ml of diluted solution into the coronary artery. As for the experimental part:
The coronary vascular dilative effect of selected 2-chloro-1,4-dihydropyridine derivatives of the present invention was tested.
Hartley guinea pigs (weight 400-500 g) were killed by a blow on the head and their hearts were immediately isolated. The hearts were perfused with Krebs-Henseleit solution bubbled with a mixture of 95% O2 +5% CO2 and maintained at 37° C. at a constant rate of 6 ml/minute according to Langendorff's method [J. Pharmacol. Methods 2, 143 (1979)]. The perfusion pressure was measured continuously by a pressure transducer. Samples were prepared by emulsifying 1 mg of a test compound in 1 ml of a mixture of dimethylsulfoxide and physiological saline solution (1:9) and diluting with physiological saline solution to the predetermined concentration. 0.1 ml of the diluted solution was administered into the coronary artery via rubber tube connected to an aorta cannula to obtain ED50 (μg/heart) data as shown in Table 2. The numbers of the compounds in the Table correspond respectively to those of the working examples described above.

Data set [4] concerns vascular resistance of the vertebral artery. The experiment in a line: vascular resistance of the vertebral artery in anesthetized dogs. It is filed as in vivo. To be noted: intravenous injection; for ED30: Canis lupus familiaris, vertebral artery vascular resistance. The protocol: The pharmacological effect (ED30) of selected 2-chloro-1,4-dihydropyridine derivatives of the present invention with respect to the vascular resistance of the vertebral artery in anesthetized dogs was treated by the following procedures.
Adult dogs of either sex (7-14 kg in body weight) were anesthetized with at first thiopental sodium (35 mg/kg, intraperitoneal), anesthetized with urethane (400 mg/kg, intravenous) and α-chloalose (60 mg/kg, intravenous) and kept under artificial respiration throughout the experiment. After thoracotomy at the left first intercostal space, the vertebral artery was exposed and blood flow was measured with an intracorporeal flow probe connected to an electromagnetic flowmeter (MF-27, Nihon Kohden).
At the same time, continuous measurement of the following parameters was made: systemic blood pressure (mean pressure) at the right femoral artery, the limb lead II ECG, the heart rate with a tachometer triggered by the R wave of ECG, and the vascular resistance determined by loading an electronic divider (EO-601 G, Nihon Kohden) with the mean values of blood pressure and vertebral artery blood flow. All of these parameters were recorded simultaneously on a polygraph (RM-600, Nihon Kohden).
All the test compounds were injected through a cannula inserted into the femoral vein.
The ED30 (μg/kg) values obtained by intravenous injection and the values of T1/2 (min) (the time to reach 50% of the resistance drop) are shown in Table 3, wherein the Compound Numbers are keyed to the Example Numbers.

Where [5] appears, read: iv, male mice, read-out: LD50 i.v.
Where [6] appears, read: po, male mice starved overnight, suspended in 0.5% CMC-Na, read-out: LD50 p.o.

One may read the LD50 as the dose expected to kill half of the subjects tested. In the case of `COC(=O)C1=C(Cl)NC(C)=C(C(=O)OC(C)C)C1c1cccc([N+](=O)[O-])c1` (stereo not drawn) [SUN 5141], in data set [1], the “Blood pressure drop, Maximum drop” value was found to be 51% and the “Blood pressure drop, 6 hours” value is recorded as 33%. Also, the LD50 in data set [2] (setting [5]) is 80 mg/kg. This compound gave an ED50 in data set [3] of 0.05 μg/heart. Besides, in data set [4], the ED30 worked out at 0.00028 mg/kg and the “T1/2 (the time to reach 50% of the resistance drop)” value is listed as 10.6 min.
As to `COC(=O)C1=C(Cl)NC(C)=C(C(=O)OC2CCCN(Cc3ccc(F)cc3)C2)C1c1cccc([N+](=O)[O-])c1` (stereo not drawn) [SUN 5142, 2-Chloro-5-[1-(4-fluorobenzyl)piperidin-3-yl]oxycarbonyl-3-methoxycarbonyl-6-methyl-4-(3-nitrophenyl)-1,4-dihydroppyridine], the ED50 in data set [3] stood at 0.03 μg/heart. In data set [4], the ED30 was 0.0028 mg/kg and the “T1/2 (the time to reach 50% of the resistance drop)” value was greater than 30 min.
On to `COC(=O)C1=C(Cl)NC(C)=C(C(=O)OCCCCCc2ccccc2)C1c1cccc([N+](=O)[O-])c1` (stereo not drawn) [SUN 5088], for which, in data set [4], the ED30 stood at 0.0014 mg/kg and the “T1/2 (the time to reach 50% of the resistance drop)” value was determined as 17.0 min.
In turn, `COC(=O)C1=C(Cl)NC(C)=C(C(=O)OCC2CC2)C1c1cccc([N+](=O)[O-])c1` (stereo not drawn) [SUN 5164] came in with an ED30 in data set [4] of 0.00022 mg/kg.
Turning to `COC(=O)C1=C(C)NC(C)=C(C(=O)OCCN(C)Cc2ccccc2)C1c1cccc([N+](=O)[O-])c1` (stereo not drawn) [Nicardipine, reference compound], the “Blood pressure drop, Maximum drop” value in data set [1] turned out to be 39%. Also, the “Blood pressure drop, 6 hours” value in data set [1] is reported as 10-20%. Besides, the results for the LD50 in data set [2] (setting [5]) and in data set [2] (setting [6]) were 12.2 mg/kg and 455 mg/kg, respectively.
Turning to `COC(=O)C1=C(C)NC(Cl)=C(C(=O)OC)C1c1ccccc1[N+](=O)[O-]` (stereo not drawn) [SUN 4671], the ED30 in data set [4] stood at 0.00059 mg/kg.
`COCCOC(=O)C1=C(C)NC(Cl)=C(C(=O)OC)C1c1cccc([N+](=O)[O-])c1` (stereo not drawn) [SUN 5220]: in data set [4], the ED30 was 0.0058 mg/kg and the “T1/2 (the time to reach 50% of the resistance drop)” value was determined as 13.5 min.
For `COC(=O)C1=C(Cl)NC(C)=C(C(=O)OCCN2CCN(C(c3ccccc3)c3ccccc3)CC2)C1c1cccc([N+](=O)[O-])c1` (stereo not drawn) [SUN 4752, 5-[2-(4-Benzhydrylpiperazin-1-yl)ethyl]oxycarbonyl-2-chloro-3-methoxycarbonyl-6-methyl-4-(3-nitrophenyl)-1,4-dihydropyridine], in data set [1], the “Blood pressure drop, Maximum drop” value is reported as 35% and the “Blood pressure drop, 6 hours” value was determined as 30%. Further, in data set [2] (setting [5]), the LD50 is 23 to 27 mg/kg. The 50% lethal dose (LD50) in data set [2] (setting [6]) came to 1000 mg/kg. In addition, in data set [4], the ED30 came out at 0.003 mg/kg and the “T1/2 (the time to reach 50% of the resistance drop)” value is greater than 30 min.
Turning to `COC(=O)C1=C(Cl)NC(C)=C(C(=O)OCCN2CCN(C3c4ccccc4-c4ccccc43)CC2)C1c1cccc([N+](=O)[O-])c1` (stereo not drawn) [SUN 5018], in data set [4], the ED30 came out at 0.0043 mg/kg and the “T1/2 (the time to reach 50% of the resistance drop)” value was found to be 15.5 min.
For `CCOC(=O)C1=C(Cl)NC(C)=C(C(=O)OCCN2CCOCC2)C1c1ccccc1[N+](=O)[O-]` (stereo not drawn) [SUN 5252], the ED30 in data set [4] amounted to 0.0036 mg/kg.
With `COC(=O)C1=C(Cl)NC(C)=C(C(=O)OCCc2cccs2)C1c1cccc([N+](=O)[O-])c1` (stereo not drawn) [SUN 5163], in data set [4], the ED30 amounted to 0.0093 mg/kg and the “T1/2 (the time to reach 50% of the resistance drop)” value is listed as 14.0 min.
Take `COC(=O)C1=C(C)NC(Cl)=C(C(=O)OC)C1c1cccc([N+](=O)[O-])c1` (stereo not drawn) [SUN 4616]: the ED30 in data set [4] worked out at 0.0012 mg/kg.
Regarding `CCCCCCCOC(=O)C1=C(C)NC(Cl)=C(C(=O)OC)C1c1cccc([N+](=O)[O-])c1` (stereo not drawn) [SUN 5143], in data set [3], the ED50 stood at 0.02 μg/heart. Further, in data set [4], the ED30 is 0.0022 mg/kg and the “T1/2 (the time to reach 50% of the resistance drop)” value is 20.5 min.
With `COC(=O)C1=C(Cl)NC(C)=C(C(=O)OCCN(C)Cc2ccccc2)C1c1cccc([N+](=O)[O-])c1` (stereo not drawn) [SUN 5017], in data set [4], the ED30 is 0.0033 mg/kg and the “T1/2 (the time to reach 50% of the resistance drop)” value worked out at 17.0 min.
`COC(=O)C1=C(Cl)NC(C)=C(C(=O)OC(CN(C)Cc2ccccc2)c2ccccc2)C1c1cccc([N+](=O)[O-])c1` (stereo not drawn) [SUN 5181] yielded an ED30 in data set [4] of 0.0021 mg/kg.
On to `COC(=O)C1=C(Cl)NC(C)=C(C(=O)OCCOc2ccccc2)C1c1cccc([N+](=O)[O-])c1` (stereo not drawn) [SUN 5151], for which, in data set [4], the ED30 was 0.0036 mg/kg and the “T1/2 (the time to reach 50% of the resistance drop)” value worked out at 10.5 min.
